Columns and labels:
[1] = tested on: NRF2 responsive genes; assay: Microarray gene expression profiling in mutant HTT ST14A cells (Case III); format: cell-based, rat; conditions: 5 μM 24 hours vs untreated
Description: RNA was extracted from HD mutant and wild type ST14A cells, differentiated for 24 hours and treated with vehicle (DMSO) or with 5 μM MIND4, using the RNeasy kit (Qiagen). Labeled cRNAs were prepared and hybridized to Affymetrix GeneChip Rat Genome 230 2.0 microarrays according to the manufacturer's instructions. Affymetrix CEL (intensity) files from hybridized arrays were imported into the Partek Genome Suite, Partek Incorporated, for biostatistical analysis. 2 CEL files were used for each experimental condition: wild type (WT) untreated, MIND4 treated (WT/MIND4), mutant (MTT) untreated, and mutant (MTT) MIND4-terated (MTT/MIND4). Two-way ANOVA was performed with interaction term included and three of the evaluated contrasts were of interest (Case I, II, and III). Gene lists were created for each of the three contrasts using the thresholds of absolute value of fold-change>1.5 and p-value with False Discovery Rate (FDR)<0.05. The lengths of the gene lists are for Case I (DP)-1765 genes, for Case II (TP)-1797 genes, and for Case III (MDDP)-268 genes. These three gene lists were imported into Ingenuity IPA for pathway and network analyses. These analyses provided Networks (graph structures of molecules connected by relationships in the IPA knowledgebase), Functions (lists of molecules grouped together due to their contribution to a biological function) and Canonical Pathways (molecules and relationships that participate in a biological pathway). Scores are assigned according to the probability that the genes from the user's list might appear in the function or pathway by chance (right-tailed Fisher's Exact Test).
To determine whether MIND4 might engage targets other than SIRT2, the gene expression changes in treated versus untreated mutant HTT and wild type ST14A cells were evaluated using an approach described previously (Luthi-Carter et al., 2010). RNA from rat embryonic striatal (ST14A) cells stably expressing a 546 amino acid HTT fragment containing either an expanded (128Q) or wild type (26Q) repeat was extracted following treatment with 5 μM MIND4 for 24 hours was extracted and run on Affymetrix rat microarrays (Affy GeneChip Rat Genome 230 2.0 array) as described above in General Methods. Two replicates for each of the experimental conditions were imported into Partek Genome Suite for biostatistical analysis. Genes showing significant differential expression were identified by ANOVA, for three contrasts, resulting in three gene-lists: mutant HD (MT) vs. wild type (WT)=Case I (Disease Phenotype); MT/MIND4 treated vs. WT=Case II (Treatment Phenotype), and MT/MIND4 treated vs. MT=Case III (Mutant Drug-Dependent Phenotype). These represented transcriptional alterations in MT compared to WT cells (Case I), in MT treated compared to WT cells (Case II), and in MT treated cells compared to untreated MT cells (Case III). The lists, Cases I-III, were then imported into Ingenuity Pathway Analysis (IPA—Ingenuity® Systems, www.ingenuity.com) for pathway and network analyses.

[2] = tested on: medium spiny neurons (MSNs) expressing mHTTex1; assay: Acutely transfected rat brain slice culture assay; format: cell-based
Description: Coronal brain slices (250 μm thick) containing both cortex and striatum were prepared from CD Sprague-Dawley rat pups at postnatal day 10 and placed into interface culture as previously described (Reinhart et al., 2011). A biolistic device (Helios Gene Gun; Bio-Rad) was then used to co-transfect the brain slices with YFP visual reporter and a 90 amino acid mutant huntingtin plasmid containing human htt exon-1 harboring a 73 CAG repeat to induce neurodegeneration of medium spiny neurons (MSNs). mHTTex1 expression induced progressive neurodegeneration of medium spiny neurons (MSNs) compared to controls over a period of 4 days.
MIND4 was added to the culture wells at the time of slice preparation and transfection to a final DMSO concentration of 0.1%; this concentration of DMSO was also added to all control wells. The positive control used for these experiments was the pan-caspase inhibitor Boc-D-FMK at 100 μM (Varna et al., 2007). YFP co-transfected MSNs were identified 4 days after incubation by their location within the striatum and by their characteristic dendritic arborization as previously described (Crittenden et al., 2010; Reinhart et al., 2011). […] Ordinate axis expresses the mean numbers of healthy YFP-positive MSNs per striatal region in each brain slice. […]

[3] = tested on: iBMM macrophages; assay: Transcriptional responses in LPS-induced iBMM macrophages (qRT-PCR); format: cell-based, mouse; conditions: 24 hr
Description: Immortalized bone marrow derived mouse macrophages (iBMMs) and BV2 mouse microglia cell line were used in the present study. Both cell types were maintained in DMEM media supplemented with 10% FBS and antibiotic-antimycotic mix. Cells were seeded into 12 well plates at the density of 3×10^5 cells/well. Cells were treated with the indicated concentrations of MIND4-17 compounds for 24 hr. Cells were then stimulated with 10 ng/ml LPS (E. coli, Sigma) for 2 hr. Total RNA was isolated using ZR Miniprep kit (Zymo Research). […] of total RNA was used to prepare cDNA. Gene expression was analyzed using VeriQuest SYBR green assay (Affymetrix) in Roche480 thermocycler. Primer sequences are as described above (see Example 9).

With `O=[N+]([O-])c1ccc(Sc2nnc(COc3ccccc3)n2-c2ccccc2)c2ncccc12` [MIND4, 5-nitro-8-{[5-(phenoxymethyl)-4-phenyl-4H-1,2,4-triazol-3-yl]thio}quinoline] the “Fold Increase, AOX1” value [1] was 3.18 fold, the “Fold Increase, CAT” value [1] was 1.72 fold and the “Fold Increase, DNAJA4” value [1] was 1.53 fold. For the same compound, the “Fold Increase, DNAJB9” value [1] was 1.63 fold, the “Fold Increase, FRA1” value [1] was 3.17 fold and the “Fold Increase, GCLC” value [1] was 2.11 fold. For the same compound, the “Fold Increase, GCLM” value [1] was 3.32 fold, the “Fold Increase, GSR” value [1] was 2.14 fold and the “Fold Increase, GSTA3” value [1] was 20.09 fold. For the same compound, the “Fold Increase, GSTM5” value [1] was 1.89 fold, the “Fold Increase, GSTP1” value [1] was 2.21 fold and the “Fold Increase, GSTT2/GSTT2B” value [1] was 1.96 fold. For the same compound, the “Fold Increase, HERPUD1” value [1] was 1.55 fold, the “Fold Increase, HO-1” value [1] was 6.14 fold and the “Fold Increase, KEAP1” value [1] was 1.53 fold. For the same compound, the “Fold Increase, MAFF” value [1] was 1.75 fold, the “Fold Increase, MGST1” value [1] was 1.84 fold and the “Fold Increase, MGST2” value [1] was 2.94 fold. For the same compound, the “Fold Increase, MRP4” value [1] was 3.37 fold, the “Fold Increase, NQO1” value [1] was 7.34 fold and the “Fold Increase, SQSTM1” value [1] was 1.82 fold. For the same compound, the “Fold Increase, TRXR1” value [1] was 3.31 fold, the “Neuroprotection relative to Boc-D-FMK at 100 μM” value ([2]; 10 μM) was “comparable to the efficacy of a reference compound” and the “Protection against mHTTex1-induced neurodegeneration of MSNs” value ([2]; concentration-dependent, 4 days) was “significantly protected against mHTTex1-induced neurodegeneration”.

`O=[N+]([O-])c1ccc(Sc2nnc(COc3ccccc3)n2-c2ccccc2)nc1` [MIND4-17] was tested, and the “Expression of inflammatory factors TNFα, IL-6, IL-1β and MCP-1” value [3] was “repressed expression of inflammatory factors” and the “Transcription of GCLM and NQO1” value [3] was “increased transcription of GCLM and NQO1”.
